Assay results: ChEMBL document CHEMBL5236633, “Multi-therapies Based on PARP Inhibition: Potential Therapeutic Approaches for Cancer Treatment” (J Med Chem, 2022)
One block for each compound: values may come before it.

Experiments:
[1] = tested on: MDA-MB-231; test: Antiproliferative activity against human MDA-MB-231 cells assessed as cell growth inhibition incubated for 24 hrs by CCK-8 assay; format: functional, cell-based; details: MDA-MB-231, 24 h
[2] = biological target: Protein cereblon/Poly [ADP-ribose] polymerase 1 (Homo sapiens, UniProt P09874+Q96SW2); test: Protac activity at CRBN/PARP1 in human HeLa cells assessed as induction of PARP-1 degradation measured after 24 hrs by immunoblotting analysis; format: cell-based
[3] = biological target: T1, Poly [ADP-ribose] polymerase 1 (Homo sapiens, UniProt P09874); test: Inhibition of PARP1 (unknown origin) incubated for 30 mins by fluorescence based analysis
[4] = tested on: A549; test: Antiproliferative activity against human A549 cells assessed as cell growth inhibition; format: functional, cell-based
[5] = biological target: T1, Poly [ADP-ribose] polymerase 1; test: Inhibition of PARP1 (unknown origin)
[6] = tested on: A549; test: Antiproliferative activity against human A549 cells assessed as cell growth inhibition measured after 24 hrs by MTT assay; format: functional, cell-based; details: A549, 24 h
[7] = biological target: Epidermal growth factor receptor (Homo sapiens, UniProt P00533); test: Inhibition of EGFR (unknown origin)
[8] = tested on: MDA-MB-436; test: Antiproliferative activity against human BRCA1 -/- MDA-MB-436 cells assessed as cell growth inhibition; format: functional, cell-based
[9] = biological target: T2, Protein mono-ADP-ribosyltransferase PARP16 (Homo sapiens, UniProt Q8N5Y8); test: Inhibition of PARP16 (unknown origin)
T2 sequence (Q8N5Y8 whole entry): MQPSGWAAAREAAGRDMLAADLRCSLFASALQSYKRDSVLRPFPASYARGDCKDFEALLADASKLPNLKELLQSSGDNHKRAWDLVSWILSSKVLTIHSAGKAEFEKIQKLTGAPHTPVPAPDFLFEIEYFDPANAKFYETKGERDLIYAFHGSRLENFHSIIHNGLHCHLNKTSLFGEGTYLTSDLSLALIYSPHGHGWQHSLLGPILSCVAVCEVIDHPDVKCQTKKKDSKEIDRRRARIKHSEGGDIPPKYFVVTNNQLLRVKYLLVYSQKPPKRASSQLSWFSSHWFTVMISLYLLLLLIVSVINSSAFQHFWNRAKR

[10] = biological target: T3, Protein mono-ADP-ribosyltransferase PARP3 (Homo sapiens, UniProt Q9Y6F1); test: Inhibition of PARP3 (unknown origin)
T3 sequence (Q9Y6F1 whole entry): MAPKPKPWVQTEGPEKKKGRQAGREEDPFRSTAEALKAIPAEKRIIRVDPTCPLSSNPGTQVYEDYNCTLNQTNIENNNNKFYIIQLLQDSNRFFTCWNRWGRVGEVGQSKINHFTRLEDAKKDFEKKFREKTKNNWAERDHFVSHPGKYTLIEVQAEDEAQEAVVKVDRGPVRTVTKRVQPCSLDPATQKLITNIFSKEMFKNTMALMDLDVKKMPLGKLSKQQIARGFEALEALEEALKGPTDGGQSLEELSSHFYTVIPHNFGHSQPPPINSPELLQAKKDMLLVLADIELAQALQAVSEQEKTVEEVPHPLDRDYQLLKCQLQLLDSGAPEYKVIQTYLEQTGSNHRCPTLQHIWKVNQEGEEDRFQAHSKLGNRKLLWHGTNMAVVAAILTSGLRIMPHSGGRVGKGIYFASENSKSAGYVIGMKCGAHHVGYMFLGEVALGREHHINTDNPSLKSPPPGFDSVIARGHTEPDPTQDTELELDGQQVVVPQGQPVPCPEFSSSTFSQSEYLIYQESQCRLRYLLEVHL

[11] = tested on: MDA-MB-231; test: Antiproliferative activity against human MDA-MB-231 cells assessed as cell growth inhibition at 10 uM incubated for 24 hrs by CCK-8 assay relative to control; format: functional; set-up: scale not given: the % may be the effect or the level left
[12] = tested on: MDA-MB-231; test: Antiproliferative activity against human MDA-MB-231 cells assessed as cell growth inhibition incubated for 24 hrs in presence of nutlin-3 by CCK-8 assay; details: MDA-MB-231, 24 h

T1 sequence (P09874 whole entry): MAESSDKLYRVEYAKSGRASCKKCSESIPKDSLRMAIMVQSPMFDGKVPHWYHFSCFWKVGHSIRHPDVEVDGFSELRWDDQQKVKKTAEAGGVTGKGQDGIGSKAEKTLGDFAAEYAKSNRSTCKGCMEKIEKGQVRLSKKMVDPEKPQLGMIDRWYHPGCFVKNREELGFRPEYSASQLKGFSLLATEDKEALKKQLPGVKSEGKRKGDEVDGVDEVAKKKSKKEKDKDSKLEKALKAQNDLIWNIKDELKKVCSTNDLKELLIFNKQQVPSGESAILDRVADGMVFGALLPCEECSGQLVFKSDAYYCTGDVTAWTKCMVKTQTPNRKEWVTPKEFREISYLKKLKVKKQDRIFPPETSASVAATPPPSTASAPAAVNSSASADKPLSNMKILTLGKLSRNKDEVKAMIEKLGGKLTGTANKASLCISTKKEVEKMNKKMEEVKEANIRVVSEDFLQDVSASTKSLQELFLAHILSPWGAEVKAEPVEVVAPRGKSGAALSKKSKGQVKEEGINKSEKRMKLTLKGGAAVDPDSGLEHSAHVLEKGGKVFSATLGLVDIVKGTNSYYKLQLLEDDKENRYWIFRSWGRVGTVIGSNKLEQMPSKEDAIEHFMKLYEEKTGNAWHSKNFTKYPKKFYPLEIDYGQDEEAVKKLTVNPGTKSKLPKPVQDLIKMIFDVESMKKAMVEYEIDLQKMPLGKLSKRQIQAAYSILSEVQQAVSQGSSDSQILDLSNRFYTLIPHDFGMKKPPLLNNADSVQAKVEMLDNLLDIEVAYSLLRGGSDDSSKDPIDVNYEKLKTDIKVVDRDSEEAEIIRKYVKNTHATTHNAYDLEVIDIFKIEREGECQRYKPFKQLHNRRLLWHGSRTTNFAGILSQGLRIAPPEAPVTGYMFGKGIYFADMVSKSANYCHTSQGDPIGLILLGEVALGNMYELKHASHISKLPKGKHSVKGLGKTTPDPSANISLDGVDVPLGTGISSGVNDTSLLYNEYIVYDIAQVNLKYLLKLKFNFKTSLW
Chain of Epidermal growth factor receptor (P00533 whole entry): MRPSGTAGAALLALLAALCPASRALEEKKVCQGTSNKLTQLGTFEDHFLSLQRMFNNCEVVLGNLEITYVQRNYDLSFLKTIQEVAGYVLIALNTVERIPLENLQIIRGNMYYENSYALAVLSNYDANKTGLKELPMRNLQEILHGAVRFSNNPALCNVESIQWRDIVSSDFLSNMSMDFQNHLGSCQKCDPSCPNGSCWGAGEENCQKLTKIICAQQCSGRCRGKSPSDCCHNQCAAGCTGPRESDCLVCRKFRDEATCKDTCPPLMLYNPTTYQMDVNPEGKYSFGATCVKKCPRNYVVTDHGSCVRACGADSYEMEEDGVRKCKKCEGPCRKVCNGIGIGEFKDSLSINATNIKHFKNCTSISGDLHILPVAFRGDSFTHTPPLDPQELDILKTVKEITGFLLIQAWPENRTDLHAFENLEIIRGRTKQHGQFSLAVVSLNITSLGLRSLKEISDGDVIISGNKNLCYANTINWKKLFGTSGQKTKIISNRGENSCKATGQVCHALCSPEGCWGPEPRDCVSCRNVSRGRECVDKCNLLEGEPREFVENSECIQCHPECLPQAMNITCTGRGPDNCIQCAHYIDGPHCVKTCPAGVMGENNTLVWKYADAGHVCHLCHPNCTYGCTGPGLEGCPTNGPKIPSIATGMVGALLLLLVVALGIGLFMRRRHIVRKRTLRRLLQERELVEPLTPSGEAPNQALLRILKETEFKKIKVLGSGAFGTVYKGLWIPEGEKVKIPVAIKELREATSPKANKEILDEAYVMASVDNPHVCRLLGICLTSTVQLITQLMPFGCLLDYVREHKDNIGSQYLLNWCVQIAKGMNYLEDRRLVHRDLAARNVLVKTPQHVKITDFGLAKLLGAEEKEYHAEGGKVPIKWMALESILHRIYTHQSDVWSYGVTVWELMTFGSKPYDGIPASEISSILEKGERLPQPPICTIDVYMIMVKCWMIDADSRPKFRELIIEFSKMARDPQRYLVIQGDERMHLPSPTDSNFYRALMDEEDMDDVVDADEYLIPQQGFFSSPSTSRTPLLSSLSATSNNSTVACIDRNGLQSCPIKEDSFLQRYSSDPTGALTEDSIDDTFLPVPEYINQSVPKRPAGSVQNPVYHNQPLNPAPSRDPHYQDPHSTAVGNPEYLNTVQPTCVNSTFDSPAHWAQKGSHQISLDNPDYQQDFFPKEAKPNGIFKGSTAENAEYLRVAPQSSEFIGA
Chain of Protein cereblon/Poly [ADP-ribose] polymerase 1 (P09874 whole entry): as the sequence (P09874 whole entry) above
Chain of Protein cereblon/Poly [ADP-ribose] polymerase 1 (Q96SW2 whole entry): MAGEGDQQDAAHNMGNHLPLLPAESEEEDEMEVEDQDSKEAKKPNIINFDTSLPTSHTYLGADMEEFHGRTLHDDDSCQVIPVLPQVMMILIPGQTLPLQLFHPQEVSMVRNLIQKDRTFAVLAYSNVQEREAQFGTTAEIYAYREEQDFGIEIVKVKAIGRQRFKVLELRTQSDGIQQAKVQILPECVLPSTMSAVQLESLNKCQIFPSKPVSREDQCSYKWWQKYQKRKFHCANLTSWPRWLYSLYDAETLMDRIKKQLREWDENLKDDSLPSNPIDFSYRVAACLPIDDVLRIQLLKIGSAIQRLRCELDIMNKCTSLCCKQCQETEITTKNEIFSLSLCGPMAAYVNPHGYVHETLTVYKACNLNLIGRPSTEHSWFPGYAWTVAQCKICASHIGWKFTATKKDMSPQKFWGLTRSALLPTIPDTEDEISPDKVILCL

Structure (SMILES): COc1ccc(C2=NC(c3ccc(Cl)cc3)C(c3ccc(Cl)cc3)N2C(=O)N2CCNC(=O)C2)c(OC(C)C)c1 (centres undefined)
IC50 [1]: 28500 nM

Structure (SMILES): CN(CCOCCOCCOCCOCCOCCOCCNc1cccc2c1C(=O)N(C1CCC(=O)NC1=O)C2=O)Cc1ccc(-c2[nH]c3cc(F)cc4c3c2CCNC4=O)cc1 (centres undefined)
DC50 [2]: 36 nM

Structure (SMILES): O=C(c1ccc(Cc2n[nH]c(=O)c3cccnc23)cc1)N1CCCC1
IC50 [3]: 36 nM

Structure (SMILES): O=C1CN(Cc2cn(-c3ccccc3F)nn2)C2(CCCCC2)c2ccccc21
IC50 [4]: 230 nM | IC50 [5]: 14.4 nM

Structure (SMILES): O=C1CCc2cc(-c3ccccc3F)ccc2C2(CCCCC2)N1
IC50 [5]: 19.9 nM | IC50 [6]: 2010 nM

Structure (SMILES): CC(c1nc2cccc(C(N)=O)c2[nH]1)N1CC(=O)N(c2cccc(C(F)(F)F)c2)C1=S (centres undefined)
IC50 [3]: 25 nM | IC50 [8]: 1000 nM

Structure (SMILES): O=C1CCN(Cc2cn(-c3ccccc3F)nn2)C2(CCCCC2)c2ccccc21
IC50 [4]: 1890 nM

Structure (SMILES): O=c1cc(-c2ccc(O)c(-c3c(O)cc(O)c4c(=O)cc(-c5ccc(O)cc5)oc34)c2)oc2cc(O)cc(O)c12 [AMENTOFLAVONE]
IC50 [5]: 198 nM

Further lines, with some results ahead:

IC50 [5]: 1.37 nM | IC50 [7]: 64.7 nM
Structure (SMILES): Cc1nnc2n1N=C(c1ccccc1OCCNCCCNCCOc1ccccc1C1=Nn3c(C)nnc3SC1)CS2

IC50 [9]: 362 nM | IC50 [10]: 74100 nM
Structure (SMILES): O=C1NCC(c2ccccn2)[C@@H](O)c2cc(Cl)c(Cl)cc21 (some centres undefined)

IC50 [1]: 8450 nM
Structure (SMILES): COc1ccc(C2=N[C@H](c3ccc(Cl)cc3)[C@H](c3ccc(Cl)cc3)N2C(=O)N2CCN(CC(=O)NCCOCCOCCOCCOCCn3cc(-c4ccc(-n5cc6cccc(C(N)=O)c6n5)cc4)nn3)C(=O)C2)c(OC(C)C)c1
Activity [11]: 70%

IC50 [1]: 33200 nM | IC50 [12]: 60900 nM
Structure (SMILES): NC(=O)c1cccc2cn(-c3ccc([C@@H]4CCCNC4)cc3)nc12 [NIRAPARIB]
